Results from patent publication US8969363B2, “Heterocyclic compounds and uses thereof” (Infinity Pharmaceuticals, Inc., priority 2011, dated 2015).

Legend:
[1] = biological target: T1, PI3Kγ (Homo sapiens, UniProt P48736); test: PI3 Kinase HTRF assay, PI3Kγ; assay type: biochemical; conditions: 10 μM PIP2, 10 μM ATP; 'Greater than 10 μM' and 'Greater than 1 μM to 10 μM'; read-out: PI3K γ IC50
T1 construct: purchased Millipore Corporation 14-558-K
Source text: (§1) A PI3-Kinase HTRF® assay kit (cat No. 33-016) purchased from Millipore Corporation was used to screen compounds provided herein. This assay used specific, high affinity binding of the GRP1 pleckstrin homology (PH) domain to PIP3, the product of a Class 1A or 1B PI3 Kinase acting on its physiological substrate PIP2. During the detection phase of the assay, a complex was generated between the GST-tagged PH domain and biotinylated short chain PIP3. The biotinylated PIP3 and the GST-tagged PH domain recruited fluorophores (Streptavidin-Allophycocyanin and Europium-labeled anti-GST respectively) to form the fluorescence resonance energy transfer (FRET) architecture, generating a stable time-resolved FRET signal. The FRET complex was disrupted in a competitive manner by non-biotinylated PIP3, a product formed in the PI3 Kinase assay.
(§2) PI3 Kinase α, β, γ and δ activity was assayed using the PI3 Kinase HTRF® assay kit (catalogue No. 33-016) purchased from Millipore Corporation. Purified recombinant PI3Kα (catalogue No. 14-602-K), PI3Kβ (catalogue No. 14-603-K), PI3Kγ (catalogue No. 14-558-K) and PI3Kδ (catalogue No. 14-604-K) were obtained from Millipore Corporation. Purified recombinant PI3K enzyme was used to catalyze the phosphorylation of phosphatidylinositol 4,5-bisphosphate (PIP2 at 10 μM) to phosphatidylinositol 3,4,5-trisphosphate (PIP3) in the presence of 10 μM ATP. The assay was carried out in 384-well format and detected using a Perkin Elmer EnVision Xcite Multilabel Reader. Emission ratios were converted into percent inhibitions and imported into GraphPad Prism software. The concentration necessary to achieve inhibition of enzyme activity by 50% (IC50) was calculated using concentrations ranging from 20 μM to 0.1 nM (12-point curve). IC50 values were determined using a nonlinear regression model available in GraphPad Prism 5. […]

[2] = biological target: T2, PI3Kα (Homo sapiens, UniProt P42336); test: PI3 Kinase HTRF assay, PI3Kα; assay type: biochemical; conditions: 10 μM PIP2, 10 μM ATP; 'Greater than 10 μM' and 'Greater than 1 μM to 10 μM'; read-out: PI3K α IC50
T2 construct: purchased Millipore Corporation 14-602-K
Source text: as §1, §2

[3] = biological target: PI3Kβ; test: PI3 Kinase HTRF assay, PI3Kβ; assay type: biochemical, human; conditions: 10 μM PIP2, 10 μM ATP; 'Greater than 10 μM' and 'Greater than 1 μM to 10 μM'; read-out: PI3K β IC50
Source text: as §1
as §2, with “Purified recombinant PI3Kα (catalogue No. 14-602-K), PI3Kβ (catalogue No. 14-603-K), PI3Kγ (catalogue No. 14-558-K) and PI3Kδ (catalogue No. 14-604-K) were obtained from Millipore Corporation.” left out, “The concentration necessary to achieve inhibition of enzyme activity by 50% (IC50) was calculated using concentrations ranging from 20 μM to 0.1 nM (12-point curve).” left out

[4] = tested on: Balb/c splenic B cells; test: B cell activation and proliferation assay (Alamar Blue); assay type: cell-based; conditions: Mus musculus
Protocol: The ability of one or more subject compounds to inhibit B cell activation and proliferation is determined according to standard procedures known in the art. For example, an in vitro cellular proliferation assay is established that measures the metabolic activity of live cells. The assay is performed in a 96 well microtiter plate using Alamar Blue reduction. Balb/c splenic B cells are purified over a Ficoll-Paque™ PLUS gradient followed by magnetic cell separation using a MACS B cell Isolation Kit (Miletenyi). Cells are plated in 90 μl at 50,000 cells/well in B Cell Media (RPMI+10% FBS+Penn/Strep+50 μM bME+5 mM HEPES). A compound provided herein is diluted in B Cell Media and added in a 10 μl volume. Plates are incubated for 30 min at 37° C. and 5% CO2 (0.2% DMSO final concentration). A 50 μl B cell stimulation cocktail is then added containing either 10 μg/ml LPS or 5 μg/ml F(ab′)2 Donkey anti-mouse […] plus 2 ng/ml recombinant mouse IL4 in B Cell Media. Plates are incubated for 72 hours at 37° C. and 5% CO2. A volume of 15 μL of Alamar Blue reagent is added to each well and plates are incubated for 5 hours at 37° C. and 5% CO2. Alamar Blue fluoresce is read at 560Ex/590Em, and IC50 or EC50 values are calculated using GraphPad Prism 5.

T1 sequence (P48736 whole entry): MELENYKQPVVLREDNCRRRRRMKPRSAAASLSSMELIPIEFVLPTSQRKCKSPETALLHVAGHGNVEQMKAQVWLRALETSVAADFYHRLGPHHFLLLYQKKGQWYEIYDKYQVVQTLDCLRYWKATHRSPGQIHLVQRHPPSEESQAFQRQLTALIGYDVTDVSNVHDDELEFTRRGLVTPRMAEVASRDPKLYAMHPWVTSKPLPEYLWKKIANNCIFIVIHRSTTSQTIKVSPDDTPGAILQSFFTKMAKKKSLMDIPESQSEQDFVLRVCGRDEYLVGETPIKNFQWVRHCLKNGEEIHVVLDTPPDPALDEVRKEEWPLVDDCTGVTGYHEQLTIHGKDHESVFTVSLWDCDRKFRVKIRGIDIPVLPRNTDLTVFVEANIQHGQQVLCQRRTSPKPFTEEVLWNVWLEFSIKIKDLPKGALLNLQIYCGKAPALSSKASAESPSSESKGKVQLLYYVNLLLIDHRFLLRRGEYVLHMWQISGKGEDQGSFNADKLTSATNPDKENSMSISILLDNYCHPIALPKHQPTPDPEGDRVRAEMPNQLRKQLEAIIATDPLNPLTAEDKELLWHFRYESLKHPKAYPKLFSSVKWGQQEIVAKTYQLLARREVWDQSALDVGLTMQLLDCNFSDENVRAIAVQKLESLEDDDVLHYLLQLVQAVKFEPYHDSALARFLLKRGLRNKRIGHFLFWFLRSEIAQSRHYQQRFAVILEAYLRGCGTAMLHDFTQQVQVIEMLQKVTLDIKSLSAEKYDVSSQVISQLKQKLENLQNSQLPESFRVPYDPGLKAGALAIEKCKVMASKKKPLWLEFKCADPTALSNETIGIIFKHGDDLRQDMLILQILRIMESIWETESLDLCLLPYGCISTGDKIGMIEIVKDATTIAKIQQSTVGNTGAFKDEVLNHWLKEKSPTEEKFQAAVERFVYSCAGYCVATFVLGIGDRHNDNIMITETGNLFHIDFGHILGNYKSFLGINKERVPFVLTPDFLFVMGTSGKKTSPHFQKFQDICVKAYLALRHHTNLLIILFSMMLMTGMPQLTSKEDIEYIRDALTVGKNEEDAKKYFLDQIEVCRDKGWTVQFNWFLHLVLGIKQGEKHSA
Sequence of PI3Kβ (Q8BTI9 whole entry): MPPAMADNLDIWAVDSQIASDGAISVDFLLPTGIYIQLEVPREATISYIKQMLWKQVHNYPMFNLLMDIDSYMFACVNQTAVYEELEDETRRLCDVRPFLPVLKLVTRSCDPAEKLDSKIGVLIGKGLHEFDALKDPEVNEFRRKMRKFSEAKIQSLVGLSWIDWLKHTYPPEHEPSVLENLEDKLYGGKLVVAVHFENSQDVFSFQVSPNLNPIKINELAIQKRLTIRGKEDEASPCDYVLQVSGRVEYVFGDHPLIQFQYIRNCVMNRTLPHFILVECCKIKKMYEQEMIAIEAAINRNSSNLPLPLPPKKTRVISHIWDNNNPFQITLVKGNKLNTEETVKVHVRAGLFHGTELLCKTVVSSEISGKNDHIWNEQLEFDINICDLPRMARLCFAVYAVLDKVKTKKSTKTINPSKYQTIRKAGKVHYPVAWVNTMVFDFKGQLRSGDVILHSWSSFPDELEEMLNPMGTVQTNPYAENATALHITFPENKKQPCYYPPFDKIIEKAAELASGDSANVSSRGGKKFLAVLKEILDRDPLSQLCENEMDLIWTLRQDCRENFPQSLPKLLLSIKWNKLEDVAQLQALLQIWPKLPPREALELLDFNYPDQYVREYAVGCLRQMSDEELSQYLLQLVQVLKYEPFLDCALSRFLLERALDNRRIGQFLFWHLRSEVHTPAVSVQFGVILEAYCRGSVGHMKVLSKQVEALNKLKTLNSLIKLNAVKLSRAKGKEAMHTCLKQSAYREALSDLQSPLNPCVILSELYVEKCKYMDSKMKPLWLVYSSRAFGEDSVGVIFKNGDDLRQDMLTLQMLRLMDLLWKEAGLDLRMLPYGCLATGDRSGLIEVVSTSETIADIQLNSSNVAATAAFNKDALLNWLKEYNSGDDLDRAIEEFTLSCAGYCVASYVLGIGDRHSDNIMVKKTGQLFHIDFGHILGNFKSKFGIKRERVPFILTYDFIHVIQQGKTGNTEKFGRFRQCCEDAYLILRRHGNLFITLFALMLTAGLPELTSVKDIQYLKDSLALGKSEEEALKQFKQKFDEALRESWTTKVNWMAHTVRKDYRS
T2 sequence (P42336 whole entry): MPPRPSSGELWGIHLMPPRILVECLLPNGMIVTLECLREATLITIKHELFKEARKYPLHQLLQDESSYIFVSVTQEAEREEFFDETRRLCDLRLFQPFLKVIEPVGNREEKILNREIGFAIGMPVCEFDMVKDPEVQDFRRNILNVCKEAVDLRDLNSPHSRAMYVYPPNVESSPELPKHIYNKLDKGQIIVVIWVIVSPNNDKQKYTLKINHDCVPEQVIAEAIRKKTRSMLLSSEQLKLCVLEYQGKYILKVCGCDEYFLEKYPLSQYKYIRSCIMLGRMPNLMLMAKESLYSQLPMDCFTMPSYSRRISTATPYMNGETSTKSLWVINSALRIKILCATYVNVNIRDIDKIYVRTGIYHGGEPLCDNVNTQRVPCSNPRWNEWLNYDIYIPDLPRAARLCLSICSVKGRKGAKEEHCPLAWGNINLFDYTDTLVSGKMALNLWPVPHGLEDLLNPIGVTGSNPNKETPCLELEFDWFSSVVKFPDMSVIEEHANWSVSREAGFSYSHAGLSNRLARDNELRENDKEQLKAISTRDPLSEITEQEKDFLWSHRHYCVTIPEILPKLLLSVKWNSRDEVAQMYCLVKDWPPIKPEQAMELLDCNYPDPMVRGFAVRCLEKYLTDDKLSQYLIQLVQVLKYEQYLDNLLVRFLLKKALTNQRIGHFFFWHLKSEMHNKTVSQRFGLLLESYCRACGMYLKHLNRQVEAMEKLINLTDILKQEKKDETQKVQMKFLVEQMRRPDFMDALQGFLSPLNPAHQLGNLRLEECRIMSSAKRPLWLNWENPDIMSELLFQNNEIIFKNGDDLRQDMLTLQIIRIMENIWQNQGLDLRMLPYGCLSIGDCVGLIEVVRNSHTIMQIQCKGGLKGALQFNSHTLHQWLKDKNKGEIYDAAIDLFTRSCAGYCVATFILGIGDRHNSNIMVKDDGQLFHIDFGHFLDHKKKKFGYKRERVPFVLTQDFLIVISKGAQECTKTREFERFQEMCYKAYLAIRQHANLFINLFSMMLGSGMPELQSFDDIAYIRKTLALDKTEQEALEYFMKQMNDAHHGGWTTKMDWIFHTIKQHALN
T2 sequence (P27986 whole entry partner): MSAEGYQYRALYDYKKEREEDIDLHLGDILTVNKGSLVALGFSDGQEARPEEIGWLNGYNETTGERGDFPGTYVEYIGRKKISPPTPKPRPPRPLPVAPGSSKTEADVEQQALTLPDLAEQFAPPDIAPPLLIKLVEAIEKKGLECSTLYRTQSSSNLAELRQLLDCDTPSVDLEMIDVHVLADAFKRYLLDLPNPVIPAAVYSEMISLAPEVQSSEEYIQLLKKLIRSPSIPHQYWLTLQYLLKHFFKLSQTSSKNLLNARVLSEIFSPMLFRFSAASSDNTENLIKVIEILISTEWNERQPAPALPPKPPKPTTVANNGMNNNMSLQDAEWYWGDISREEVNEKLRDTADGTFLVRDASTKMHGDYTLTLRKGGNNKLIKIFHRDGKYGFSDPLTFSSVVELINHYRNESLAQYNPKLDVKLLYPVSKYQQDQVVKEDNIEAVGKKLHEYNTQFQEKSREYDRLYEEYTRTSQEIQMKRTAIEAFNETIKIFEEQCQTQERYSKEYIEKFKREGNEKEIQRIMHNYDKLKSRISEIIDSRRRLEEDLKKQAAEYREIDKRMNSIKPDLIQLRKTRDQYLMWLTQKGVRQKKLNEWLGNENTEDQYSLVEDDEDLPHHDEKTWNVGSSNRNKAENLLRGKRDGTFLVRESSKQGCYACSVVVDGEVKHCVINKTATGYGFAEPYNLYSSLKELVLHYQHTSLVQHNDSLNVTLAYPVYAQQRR

SMILES | IC50 [1] [nM] | IC50 [2] [nM] | IC50 [3] [nM] | EC50 ([4]; 'Less than 100 nM') [nM] | EC50 ([4]; 1 μM to 100 nM) [nM]
C[C@H](Nc1ncnc2ccnn12)c1cc2cccc(Cl)c2c(C(=O)N2CCOCC2)n1 [II-44] | 1000 to 10000 | > 10000 | 1000 to 10000 | – | –
Cc1ncc(-c2cccc3cc([C@H](C)Nc4nc(N)nc5cccnc45)n(-c4cccc(F)c4)c(=O)c23)cn1 [Compound I-84] | – | 1000 to 10000 | > 10000 | < 100 | –
C[C@H](Nc1ncnc2cccnc12)c1cc2scc(C(F)(F)F)c2c(=O)n1-c1ccccc1 [III-41] | 1000 to 10000 | – | > 10000 | < 100 | –
C[C@H](Nc1ccnc2ccnn12)c1cc2cccc(-c3cnn(C)c3)c2c(=O)n1-c1ccccc1 [II-5, (S)-8-(1-methyl-1H-pyrazol-4-yl)-2-phenyl-3-(1-(pyrazolo[1,5-a]pyrimidin-7-ylamino)ethyl)isoquinolin-1(2H)-one] | – | 1000 to 10000 | 1000 to 10000 | < 100 | –
COc1nc(N[C@@H](C)c2cc3cccc(C(F)(F)F)c3c(=O)n2-c2cccc(F)c2)c2ncccc2n1 [III-43] | 1000 to 10000 | – | > 10000 | – | –
C[C@H](Nc1nc(N)nc2cccnc12)c1cc2cccc(-c3cnn(C)c3)c2c(=O)n1-c1cccc(F)c1 [Compound I-38] | – | 1000 to 10000 | > 10000 | < 100 | –
C[C@H](Nc1ncnc2cccnc12)c1cc2cccc(-c3cnn(C)c3)c2c(=O)n1C1CC1 [Compound I-24] | – | 1000 to 10000 | 1000 to 10000 | < 100 | –
C[C@H](Nc1cc(Cl)nn2ccnc12)c1cc2cccc(C(F)(F)F)c2c(=O)n1-c1cccc(F)c1 [III-14] | 1000 to 10000 | – | > 10000 | – | –
C[C@H](Nc1ccnn2ccnc12)c1cc2cccc(-c3cnn(C)c3)c2c(=O)n1-c1ccccc1 [II-18] | – | 1000 to 10000 | 1000 to 10000 | < 100 | –
C[C@H](Nc1c(C#N)cnc2cccnc12)c1cc2cccc(-c3cnn(C)c3)c2c(=O)n1-c1ccccc1 [Compound I-55] | 1000 to 10000 | – | > 10000 | – | –
C[C@H](Nc1c(C#N)cnc2cccnc12)c1cc2cccc(Cl)c2c(=O)n1-c1ccccc1 [Compound I-53] | 1000 to 10000 | – | > 10000 | – | –
C[C@H](Nc1ncnc2cccnc12)c1cc2c(F)cccc2c(=O)n1-c1ccccc1 [Compound I-4] | – | 1000 to 10000 | 1000 to 10000 | < 100 | –
C[C@H](Nc1ncnc2cccnc12)c1cc2cccc(-c3cnn(C)c3)c2c(=O)n1-c1cccc(F)c1 [Compound I-25] | – | 1000 to 10000 | > 10000 | < 100 | –
Cc1cccc2cc([C@H](C)Nc3ncnc4cccnc34)n(-c3cccc(F)c3)c(=O)c12 [Compound I-70] | – | 1000 to 10000 | 1000 to 10000 | < 100 | –
C[C@H](Nc1ncnc2cccnc12)c1cc2cccc(C(F)(F)F)c2c(=O)n1-c1cccc(F)c1 [III-12] | – | 1000 to 10000 | 1000 to 10000 | < 100 | –
C[C@H](Nc1nc(N)nc2cccnc12)c1cc2cccc(-c3cncnc3)c2c(=O)n1-c1ccccc1 [Compound I-74] | – | 1000 to 10000 | 1000 to 10000 | < 100 | –
Cc1nc2c(N[C@@H](C)c3cc4cccc(C(F)(F)F)c4c(=O)n3-c3ccccc3)ncnc2s1 [III-26] | 1000 to 10000 | – | > 10000 | – | –
COc1ncc(-c2cccc3cc([C@H](C)Nc4ncnc5cccnc45)n(-c4cccc(F)c4)c(=O)c23)cn1 [Compound I-73] | – | 1000 to 10000 | > 10000 | < 100 | –
Cc1cn2nccc(N[C@@H](C)c3cc4cccc(C(F)(F)F)c4c(=O)n3-c3ccccc3)c2n1 [III-29] | 1000 to 10000 | – | > 10000 | – | –

SMILES | IC50 [1] [nM] | IC50 [2] [nM] | IC50 [3] [nM] | EC50 ([4]; 'Less than 100 nM') [nM] | EC50 ([4]; 1 μM to 100 nM) [nM]
C[C@H](Nc1ncnc2cccnc12)c1cc2ccc(F)cc2c(=O)n1-c1ccccc1 [Compound I-18] | – | 1000 to 10000 | 1000 to 10000 | < 100 | –
C[C@H](Nc1ccnc2cccnc12)c1cc2cccc(Cl)c2c(=O)n1-c1cccc(F)c1 [Compound I-50] | – | 1000 to 10000 | 1000 to 10000 | < 100 | –
C[C@H](Nc1nc(N)nc2cccnc12)c1cc2cccc(-c3ccnnc3)c2c(=O)n1-c1cccc(F)c1 [Compound I-80] | – | 1000 to 10000 | > 10000 | < 100 | –
C[C@H](Nc1ccnc2ccnn12)c1cc2cccc(-c3cnn(C)c3)c2c(=O)n1C1CC1 [II-8] | 1000 to 10000 | 1000 to 10000 | 1000 to 10000 | – | –
C[C@H](Nc1ccnn2ccnc12)c1cc2cccc(-c3cnn(C)c3)c2c(=O)n1C1CC1 [II-45] | – | 1000 to 10000 | 1000 to 10000 | < 100 | –
C[C@H](Nc1ncnc2[nH]cnc12)c1cc2scc(C(F)(F)F)c2c(=O)n1-c1ccccc1 [III-40] | 1000 to 10000 | – | – | – | –
C[C@H](Nc1ncnc2cccnc12)c1cc2cccc(-c3ccc(N)nc3)c2c(=O)n1-c1ccccc1 [Compound I-43] | – | 1000 to 10000 | > 10000 | < 100 | –
C[C@H](Nc1ncnc(N)n1)c1cc2cccc(Cl)c2c(=O)n1-c1cccc(F)c1 [IV-2] | 1000 to 10000 | – | > 10000 | < 100 | –
C[C@H](Nc1ncnc2cccnc12)c1cc2cc(F)ccc2c(=O)n1-c1ccccc1 [Compound I-6] | 1000 to 10000 | 1000 to 10000 | > 10000 | – | 100 to 1000
C[C@H](Nc1ccnc2ccnn12)c1cc2cccc(Cl)c2c(=O)n1-c1cccc(F)c1 [II-4] | – | 1000 to 10000 | 1000 to 10000 | < 100 | –
C[C@H](Nc1c(C#N)cnc2cccnc12)c1cc2cccc(C(F)(F)F)c2c(=O)n1-c1ccccc1 [III-37] | 1000 to 10000 | – | > 10000 | – | –
CNc1nc(N[C@@H](C)c2cc3cccc(Cl)c3c(=O)n2-c2ccccc2)c2ncccc2n1 [Compound I-96] | – | 1000 to 10000 | 1000 to 10000 | < 100 | –
COc1ccc(-c2cccc3cc([C@H](C)Nc4ncnc5cccnc45)n(-c4ccccc4)c(=O)c23)cn1 [Compound I-48] | – | 1000 to 10000 | > 10000 | < 100 | –
C[C@H](Nc1c(C#N)cnc2cccnc12)c1cc2cccc(Cl)c2c(=O)n1-c1cccc(F)c1 [Compound I-54] | 1000 to 10000 | – | > 10000 | – | –
C[C@H](Nc1ccnc2ccnn12)c1cc2cccc(-c3cnn(C)c3)c2c(=O)n1-c1cccc(F)c1 [II-9] | – | 1000 to 10000 | > 10000 | < 100 | –
C[C@H](Nc1ccnn2ccnc12)c1cc2cccc(-c3cnn(C)c3)c2c(=O)n1-c1cccc(F)c1 [II-17] | – | 1000 to 10000 | > 10000 | < 100 | –
C[C@H](Nc1nc(N)nc2cccnc12)c1cc2cccc(-c3ccnnc3)c2c(=O)n1-c1ccccc1 [Compound I-79] | – | 1000 to 10000 | 1000 to 10000 | < 100 | –
Cc1nsc2cc(C(C)Nc3ncnc4cccnc34)n(-c3ccccc3)c(=O)c12 (stereo not drawn) [Compound I-27] | 1000 to 10000 | – | > 10000 | – | 100 to 1000
C[C@H](Nc1ccnn2ccnc12)c1cc2cccc(C(F)(F)F)c2c(=O)n1-c1cccc(F)c1 [III-15] | – | 1000 to 10000 | 1000 to 10000 | < 100 | –
